Assays:
human recombinant LSD1 [1] = biological target: T1, human recombinant LSD1 (Homo sapiens, UniProt O60341); conditions: previous studies ref 8; cited from earlier work
human recombinant LSD1 [2] = biological target: T1, human recombinant LSD1; assay: Recombinant LSD1 inhibition assay; type: biochemical; conditions: 10 μM

SMILES | Mode of inhibition (human recombinant LSD1 [1]) | Effect on LSD1 activity (human recombinant LSD1 [2])
Cl.N=C(NCCCNCCCCCCCNCCCNC(=N)NC(=N)NCCC(c1ccccc1)c1ccccc1)NC(=N)NCCC(c1ccccc1)c1ccccc1 [Compound 2, verlindamycin] | non-competitive inhibitor | –
Cl.O=C(NCCCNCCCCCNCCCNC(=O)Nc1ccccc1)Nc1ccccc1 [Compound 7a, 1,13-bis-{3-[1-(phenyl)ureido]}-4,10-diazatridecane dihydrochloride] | – | increase in the activity of LSD1
CCNC(=O)NCCCNCCCCCCNCCCNC(=O)NCC.Cl.Cl [Compound 9a] | – | increase in the activity of LSD1
CCCNC(=O)NCCCNCCCCCCNCCCNC(=O)NCCC.Cl.Cl [Compound 9b] | – | increase in the activity of LSD1
Cl.Cl.O=C(NCCCNCCCCCCNCCCNC(=O)NCc1ccccc1)NCc1ccccc1 [Compound 9d] | – | increase in the activity of LSD1

— PMC4396983 (Bioorganic & medicinal chemistry, 2015)
